Molecular target: T1, Tyrosine-protein phosphatase non-receptor type 22 (Homo sapiens, UniProt Q9Y2R2)
T1 sequence (Q9Y2R2 whole entry): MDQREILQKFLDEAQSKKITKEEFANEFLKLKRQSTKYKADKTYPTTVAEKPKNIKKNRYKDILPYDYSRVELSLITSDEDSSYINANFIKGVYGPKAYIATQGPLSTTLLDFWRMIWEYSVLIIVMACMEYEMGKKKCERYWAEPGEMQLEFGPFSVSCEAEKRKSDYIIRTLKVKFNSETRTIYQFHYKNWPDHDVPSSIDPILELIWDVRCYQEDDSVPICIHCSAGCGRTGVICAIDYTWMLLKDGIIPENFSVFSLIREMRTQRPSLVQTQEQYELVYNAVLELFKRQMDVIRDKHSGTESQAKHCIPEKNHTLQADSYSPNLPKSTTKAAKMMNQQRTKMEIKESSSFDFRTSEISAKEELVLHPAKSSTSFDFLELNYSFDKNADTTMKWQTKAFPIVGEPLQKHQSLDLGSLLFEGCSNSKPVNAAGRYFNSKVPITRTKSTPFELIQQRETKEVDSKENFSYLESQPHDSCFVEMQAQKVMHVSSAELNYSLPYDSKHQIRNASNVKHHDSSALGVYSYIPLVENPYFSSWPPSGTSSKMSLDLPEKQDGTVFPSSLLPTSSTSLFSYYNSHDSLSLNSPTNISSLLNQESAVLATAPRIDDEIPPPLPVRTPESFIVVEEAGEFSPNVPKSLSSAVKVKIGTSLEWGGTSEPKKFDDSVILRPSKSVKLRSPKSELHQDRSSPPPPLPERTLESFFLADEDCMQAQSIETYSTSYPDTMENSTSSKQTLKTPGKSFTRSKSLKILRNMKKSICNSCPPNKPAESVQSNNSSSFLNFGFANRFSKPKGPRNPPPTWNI
Assay: PubChem AID 2135

IC50: > 100 µM
SMILES: CCOc1ccc2nc(NC(=O)CSc3cc(O)c4c(C)c(C)sc4n3)sc2c1 [2-[(2,3-dimethyl-4-oxidanylidene-5H-thieno[2,3-b]pyridin-6-yl)sulfanyl]-N-(6-ethoxy-1,3-benzothiazol-2-yl)ethanamide]

From BindingDB's records for doi:10.7270/Q2BZ64GK (Burnham Center For Chemical Genomics, 2009)
